# Reference: paper PMC5267425, “Identification of small molecule modulators of HIV-1 Tat and Rev protein accumulation” (Retrovirology, 2017)
# Test system: cellular gene expression in HeLa rtTA HIV∆Mls cells
smiles,measurement,value
"Cc1cc(NCc2cccnc2)n2ncc(-c3ccc(Cl)cc3)c2n1 [Compound 791, 3-(4-chlorophenyl)-5-methyl-N-(3-pyridinylmethyl)pyrazolo[1,5-a]pyrimidin-7-amine]",SETMAR expression fold change,0.745
same,SFPQ expression fold change,0.604
same,SFRS13A expression fold change,1.164
same,SH2D4A expression fold change,1.164
same,SH3BGR Mean fold change,1.680
same,SHPK expression fold change,0.869
same,SIAH1 Mean fold change,1.613
same,SIAH2 Mean fold change,1.494
same,SIKE1 expression fold change,1.279
same,SKA2 expression fold change,0.700
same,SLC1A5 Mean fold change,2.013
same,SLC6A9 Mean fold change,1.846
same,SLC6A15 Mean fold change,1.859
same,SLC9A3 Mean fold change,1.796
same,SLC10A3 expression fold change,0.873
same,SLC16A1 expression fold change,1.148
same,SLC22A15 Mean fold change,2.322
same,SLC25A23 expression fold change,0.855
same,SLC26A11 expression fold change,1.295
same,SLC29A1 expression fold change,0.814
same,SLC35B3 expression fold change,1.282
same,SLC38A6 expression fold change,1.215
same,SLC39A6 expression fold change,1.389
same,SMARCA1 expression fold change,0.805
same,SMARCA5 expression fold change,0.811
same,SMARCC1 expression fold change,0.845
same,SMC2 expression fold change,0.736
same,SMC4 expression fold change,0.769
same,SMEK2 expression fold change,1.332
same,SMS expression fold change,0.802
same,SMTN expression fold change,0.528
same,SNAPC5 Mean fold change,1.498
same,SNX7 expression fold change,0.747
same,SNX10 Mean fold change,2.399
same,SOD1 expression fold change,0.780
same,SOX12 expression fold change,0.979
same,SPCS1 expression fold change,1.045
same,SPR expression fold change,0.726
same,SPRED2 Mean fold change,2.080
same,SPRYD4 expression fold change,0.835
same,SPTAN1 expression fold change,0.613
same,SQSTM1 expression fold change,1.336
same,SRPK1 expression fold change,1.142
same,SS18L1 expression fold change,1.184
same,SSR4 expression fold change,1.121
same,ST5 expression fold change,0.715
same,ST6GALNAC4 expression fold change,1.270
same,ST7L expression fold change,1.363
same,STAG3L4 Mean fold change,1.432
same,STAMBP expression fold change,1.360
same,STARD4 expression fold change,0.603
same,STK24 expression fold change,1.344
same,STK36 expression fold change,1.268
same,STK38 expression fold change,0.829
same,STK40 expression fold change,1.375
same,STMN1 expression fold change,0.737
same,STX4 expression fold change,1.358
same,SUN1 expression fold change,0.880
same,SUPT3H expression fold change,1.089
same,SUPT16H expression fold change,1.113
same,SWAP70 expression fold change,0.801
same,SYNPO expression fold change,0.615
same,TAB1 expression fold change,1.071
same,TADA2B expression fold change,1.205
same,TAF1C expression fold change,1.085
same,TAF3 expression fold change,1.132
same,TAF4B expression fold change,0.875
same,TAGLN2 expression fold change,0.573
same,TATDN1 Mean fold change,1.544
same,TBC1D23 expression fold change,0.831
same,TBC1D25 expression fold change,0.892
same,TBCCD1 expression fold change,1.231
same,TBCD expression fold change,0.769
same,TBL1X expression fold change,1.190
same,TBX1 expression fold change,0.707
same,TCEA1 Mean fold change,2.377
same,TCTA expression fold change,0.691
same,TEX2 expression fold change,1.153
same,TEX261 expression fold change,0.826
same,TFAP2A expression fold change,0.742
same,TGDS expression fold change,1.239
same,TGFA Mean fold change,2.015
same,THAP2 Mean fold change,1.505
same,TIGD2 expression fold change,1.326
same,TIGD6 Mean fold change,1.617
same,TIMELESS expression fold change,1.079
same,TIMM17B expression fold change,1.193
same,TIMP4 Mean fold change,2.098
same,TIPRL expression fold change,1.158
same,TLE3 expression fold change,0.824
same,TM4SF1 expression fold change,0.658
same,TM4SF19 Mean fold change,2.453
same,TM9SF4 expression fold change,1.144
same,TMED9 expression fold change,0.713
same,TMEM33 expression fold change,1.367
same,TMEM51 expression fold change,1.103
same,TMEM55A Mean fold change,1.593
same,TMEM68 expression fold change,1.389
same,TMEM69 expression fold change,0.879
same,TMEM120B expression fold change,1.358
same,TMEM126B expression fold change,1.318
same,TMEM128 Mean fold change,1.475
same,TMEM133 expression fold change,0.678
same,TMEM134 expression fold change,1.333
same,TMEM136 Mean fold change,1.653
same,TMEM138 expression fold change,1.174
same,TMEM167B expression fold change,1.381
same,TMEM184B expression fold change,0.777
same,TMSB10 expression fold change,0.763
same,TNKS2 expression fold change,1.115
same,TNS3 expression fold change,0.625
same,TOM1 expression fold change,1.142
same,TOP1 Mean fold change,1.433
same,TOP2B expression fold change,0.838
same,TOR3A Mean fold change,2.169
same,TPD52 expression fold change,0.814
same,TPK1 Mean fold change,1.463
same,TRAPPC6B Mean fold change,1.516
same,TRIB3 Mean fold change,9.286
same,TRIM5 expression fold change,0.541
same,TRIM8 expression fold change,1.137
same,TRIM11 expression fold change,1.129
same,TRIM38 expression fold change,1.268
same,TRIP12 expression fold change,0.897
same,TRIP13 expression fold change,0.826
same,TRMT2A expression fold change,1.232
same,TRNP1 expression fold change,0.822
same,TRNT1 expression fold change,1.353
same,TRUB2 expression fold change,0.915
same,TSEN2 Mean fold change,1.417
same,TSEN15 Mean fold change,1.483
same,TSPAN14 expression fold change,1.164
same,TSR2 expression fold change,0.870
same,TSSK6 Mean fold change,1.615
same,TTC9C expression fold change,1.292
same,TTC13 Mean fold change,1.539
same,TTC17 Mean fold change,1.465
same,TTLL4 expression fold change,1.144
same,TTRAP Mean fold change,1.772
same,TUBA1C expression fold change,0.608
same,TUBGCP4 expression fold change,1.159
same,TXNDC11 expression fold change,0.839
same,TXNRD2 expression fold change,0.682
same,UBAP2L expression fold change,0.784
same,UBAP2 expression fold change,0.809
same,UBE2CBP expression fold change,1.206
same,UBE2E3 expression fold change,0.823
same,UBE2F expression fold change,1.199
same,UBE3A expression fold change,1.133
same,UBL5 expression fold change,0.749
same,UBXN2B Mean fold change,1.412
same,UNC13D expression fold change,0.656
same,UPF1 expression fold change,0.745
same,UPP1 Mean fold change,1.696
same,USP3 expression fold change,1.367
same,USP13 expression fold change,0.835
same,USP43 expression fold change,0.526
same,USP45 expression fold change,1.299
same,VHL expression fold change,1.356
same,VPS4B expression fold change,0.923
same,VPS45 expression fold change,1.169
same,WARS Mean fold change,4.515
same,WBSCR16 expression fold change,0.745
same,WDFY1 expression fold change,1.061
same,WDR67 Mean fold change,1.463
same,WDR73 expression fold change,1.398
same,WDR85 Mean fold change,1.430
same,WDR86 Mean fold change,1.956
same,WI2-3658N16.1 Mean fold change,2.029
same,XBP1 Mean fold change,1.642
same,XPNPEP3 Mean fold change,1.531
same,XPO5 expression fold change,1.247
same,XPO7 expression fold change,0.941
same,XPOT Mean fold change,2.053
same,XRCC6BP1 expression fold change,1.139
same,YAP1 expression fold change,1.104
same,YARS Mean fold change,1.734
same,ZBED1 expression fold change,0.668
same,ZBED5 expression fold change,1.276
same,ZBTB8A expression fold change,1.143
same,ZBTB26 expression fold change,1.398
same,ZBTB34 expression fold change,1.406
same,ZC3H4 expression fold change,0.785
same,ZC3H7A expression fold change,0.841
same,ZC3H8 Mean fold change,1.710
same,ZC3H14 expression fold change,1.133
same,ZCCHC4 expression fold change,1.276
same,ZCCHC8 expression fold change,1.219
same,ZCCHC9 expression fold change,1.340
same,ZFAND1 Mean fold change,1.472
same,ZFP30 expression fold change,1.219
same,ZFP36L2 expression fold change,1.274
same,ZFP64 expression fold change,1.227
same,ZFP161 Mean fold change,1.683
same,ZFYVE20 expression fold change,1.201
same,ZFYVE27 expression fold change,1.318
same,ZHX2 Mean fold change,1.409
same,ZIC2 Mean fold change,1.423
same,ZNF12 expression fold change,1.245
same,ZNF25 Mean fold change,1.879
same,ZNF28 expression fold change,1.179
same,ZNF91 expression fold change,1.253
same,ZNF133 expression fold change,1.224
same,ZNF184 expression fold change,1.308
same,ZNF193 expression fold change,1.323
same,ZNF195 expression fold change,1.289
same,ZNF217 Mean fold change,1.446
same,ZNF239 Mean fold change,1.543
same,ZNF252 Mean fold change,1.609
same,ZNF295 Mean fold change,1.482
same,ZNF319 expression fold change,1.386
same,ZNF320 expression fold change,1.362
same,ZNF354A expression fold change,1.350
same,ZNF354B Mean fold change,1.466
same,ZNF410 Mean fold change,1.435
same,ZNF419 Mean fold change,1.789
same,ZNF433 Mean fold change,1.676
same,ZNF445 expression fold change,1.297
same,ZNF493 Mean fold change,1.482
same,ZNF500 expression fold change,1.175
same,ZNF547 expression fold change,1.209
same,ZNF554 expression fold change,1.212
same,ZNF558 Mean fold change,1.502
same,ZNF566 expression fold change,1.349
same,ZNF567 expression fold change,1.133
same,ZNF592 expression fold change,1.148
same,ZNF619 expression fold change,1.402
same,ZNF664 expression fold change,1.294
same,ZNF669 expression fold change,1.198
same,ZNF700 expression fold change,1.242
same,ZNF706 expression fold change,1.373
same,ZNF746 expression fold change,1.115
same,ZNF747 expression fold change,1.143
same,ZNF764 expression fold change,1.241
same,ZNF770 Mean fold change,1.508
same,ZNF780A expression fold change,1.192
same,ZNF780B expression fold change,1.397
same,ZNF800 expression fold change,1.234
same,ZRSR2 expression fold change,1.249
same,ZSCAN12 Mean fold change,1.516
same,ZSCAN30 Mean fold change,1.472
same,ZSWIM7 expression fold change,1.339
same,fold change in expression of gene APBB1,0.456
same,fold change in expression of gene C19orf21,0.393
same,fold change in expression of gene CACNG4,0.431
same,fold change in expression of gene CAV1,0.418
same,fold change in expression of gene CDKN2AIP,0.467
same,fold change in expression of gene CITED2,0.434
same,fold change in expression of gene COL9A3,0.376
same,fold change in expression of gene CRISPLD2,0.367
same,fold change in expression of gene CSDC2,0.362
same,fold change in expression of gene CTGF,0.371
same,fold change in expression of gene CYR61,0.369
